From patent EP0421819A1, “Therapeutic nucleosides” (THE WELLCOME FOUNDATION LIMITED, priority 1989, dated 1991)
Entries after “also recorded” stand apart in the source; their conditions may differ.

How the values were obtained:
Type in all cases: cell-based
[1] = test system: Hepatitis B Virus (HBV); test: Antiviral activity against HBV in the HBV producer cell line HepG2 2.2.15 (Dane particle DNA and intracellular replicative intermediates); details: for anti-HBV activity: general statement in the description, no concentration given
Experimental: The human HBV producer cell line of HepG2, 2.2 15, described and characterised by Sells et al., PNAS 84:1005, 1987 and J. Virol. […] This cell line was utilised in vitro to identify compounds with anti-HBV activity.
To test compounds for antiviral activity, monolayer cultures were treated with compound, 50-200 µM, for ten days. Supernatant media containing extracellular virion DNA (Dane particles), were harvested on days three, six and ten, treated with proteinase K(1 mg/mL) and sodium dodecyl sulfate (1%), and incubated at 50 °C for one hour. DNA was extracted with equal volumes of phenol followed by chloroform and then precipitated by ammonium acetate and propanol. The DNA precipitate was dissolved and collected on nitrocellulose using the procedure of Schieicher and Schuell (S & S, 10 Optical Ave., Keene, NH 03431, Publication #700, 1987), and treated as described by Southern, J. Mol. Biol. 98:503, 1975. Cells were harvested, and the intracellular DNA was obtained after cell lysis with guanidine isothiocyanate. The intracellular DNA was handled in the same manner as the extracellular DNA. After precipitation by ammonium acetate and propanol, the intracellular DNA precipitate was dissolved, cut by restriction endonuclease, Hind III, applied to agarose gel and then treated as described by Southern to determine the quantity of replicative intermediate forms. The antiviral effect of the drug was determined by measuring at least a 100-fold reduction of the amount of Dane particles extruded into the culture and a similar decrease in the intracellular replicative intermediates.

[2] = test system: HIV-1; test: Anti-HIV activity by the method of Averett (J.Virol.Methods 23, 263-276); details: against HIV-1; n=7; read-out: average IC₅₀
Experimental: (§1) Anti-HIV activity was determined by the method of Averett, D.R., J.Virol.Methods, 23 263-276 (1989).

[3] = test system: HIV-2; test: as above; details: against HIV-2; n=6; read-out: average IC₅₀
Experimental: as §1

[4] = test system: HIV; test: Activity against HIV infections (general statement, no method given at that place); details: general statement in the description

Question: How did the anti-HBV activity [1] turn out when `CCCOc1nc(N)nc2c1ncn2[C@H]1CC[C@@H](CO)O1` [Compound 9, 2-Amino-6-n-propoxypurine-9-β-D-2′,3′-dideoxyribofuranoside] was run?
Answer: surprisingly high

Question: `Nc1nc(NC2CC2)c2ncn([C@H]3CC[C@@H](CO)O3)c2n1` [Compound 34, 2-Amino-6-cyclopropylaminopurine-9-β-D-2,′3′-dideoxyribofuranoside] was tested. Which anti-HBV activity [1] did it give?
Answer: surprisingly high

Question: `Nc1nc(NCC2CC2)c2ncn([C@H]3CC[C@@H](CO)O3)c2n1` [Example 42, 2-Amino-6-(cyclopropylmethylamino)purine-9-β-D-2′,3′-dideoxy ribofuranoside] was tested. Which “inhibition of HBV” value ([1]; at 100 µM, monolayer cultures treated for ten days) did it give?
Answer: strong inhibition

Question: What about the anti-HBV activity ([1]; listed as Compound 41) of the same compound?
Answer: surprisingly high; also recorded: exceptionally potent activity

Question: What about the IC50 [2] of the same compound?
Answer: 17.7 µM

Question: And the IC50 [3]?
Answer: 13.3 µM

Question: And the “activity against HIV infections” value [4]?
Answer: exceptionally potent activity
